Data reported in US20250206730A1 (AUTOTELIC BIO INC., priority 2022, published 2025).

What was measured:
ALK5 kinase = biological target: T1, ALK5 kinase (Homo sapiens, UniProt P36897); assay: LanthaScreen Eu Kinase Binding Assay; conditions: Kinase Tracer 178, Eu-anti-GST Antibody, read-out: IC50 Enzyme
T1 sequence (P36897 34-503): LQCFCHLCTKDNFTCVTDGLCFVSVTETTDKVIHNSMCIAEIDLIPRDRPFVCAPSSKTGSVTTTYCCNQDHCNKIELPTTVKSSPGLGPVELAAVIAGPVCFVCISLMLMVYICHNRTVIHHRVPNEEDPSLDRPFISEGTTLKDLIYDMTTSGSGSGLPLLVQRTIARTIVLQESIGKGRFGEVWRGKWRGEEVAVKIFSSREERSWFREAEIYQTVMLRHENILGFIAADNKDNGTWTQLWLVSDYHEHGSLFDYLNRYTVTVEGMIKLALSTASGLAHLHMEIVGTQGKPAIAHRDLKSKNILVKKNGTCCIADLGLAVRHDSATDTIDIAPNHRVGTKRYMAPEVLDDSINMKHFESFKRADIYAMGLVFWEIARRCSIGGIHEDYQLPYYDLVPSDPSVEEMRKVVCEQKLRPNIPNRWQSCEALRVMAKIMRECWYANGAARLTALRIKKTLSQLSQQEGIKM
In short: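 Compound (1% DMSO final) preincubated 30 min at RT with GST-tagged ALK5, then Eu-anti-GST antibody and Kinase Tracer 178 added for 60 min at RT. TR-FRET read at 340 nm excitation; 665/615 nm emission ratio falls as compound binding rises.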

TGF-β signaling = assay: Assay for evaluating cellular inhibition of TGF-β signaling, 4T1 (SBE-luc2P) luciferase reporter; assay type: cell-based; conditions: Mus musculus, 4T1, 4T1 (SBE-luc2P) transient pool, 0.2% FBS, 2 h pre-treatment, TGF-β1 2 ng/mL 24 h; read-out: IC50 4T1 Cell
In short: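 4T1 cells transiently carrying SBE-luc2P (6×10^3/well, 0.2% FBS, ~60% confluence) or HEK293 SBE-reporter stable cells (2.5×10^4/well, 0.5% FBS, ~80% confluence) pre-treated with compound for 2 h. TGF-β1 (2 ng/mL) then added for 24 h at 37 °C; luciferase luminescence read from lysates.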

Row | SMILES | IC50 (ALK5 kinase) [nM] | IC50 (TGF-β signaling) [nM]
1 | Cc1cccc(-c2nc(N)sc2Oc2ccnc(Nc3cccc(C(=O)O)c3)c2)n1 [A-249, 3-((4-((2-Amino-4-(6-methylpyridin-2-yl)thiazol-5-yl)oxy)pyridin-2-yl)amino)benzoic acid] | < 100 | < 100
2 | CCc1nc(-c2cccc(C)n2)c(Oc2ccnc(Nc3cccc(S(N)(=O)=O)c3)c2)s1 [A-250, 3-((4-((2-Ethyl-4-(6-methylpyridin-2-yl)thiazol-5-yl)oxy)pyridin-2-yl)amino)benzenesulfonamide] | < 100 | < 100
3 | CCc1nc(-c2cccc(C)n2)c(Oc2ccnc(Nc3ccc(C(N)=O)cn3)c2)s1 [A-251, 6-((4-((2-Ethyl-4-(6-methylpyridin-2-yl)thiazol-5-yl)oxy)pyridin-2-yl)amino)nicotinamide] | < 100 | < 100
4 | CCc1nc(-c2cccc(C)n2)c(Oc2ccnc(Nc3ccc(C(=O)O)cn3)c2)s1 [A-252, 6-((4-((2-Ethyl-4-(6-methylpyridin-2-yl)thiazol-5-yl)oxy)pyridin-2-yl)amino)nicotinic acid] | < 100 | < 100
5 | CCc1nc(-c2cccc(C)n2)c(Oc2ccnc(Nc3ccc(C(=O)NC)cn3)c2)s1 [A-253, 6-((4-((2-Ethyl-4-(6-methylpyridin-2-yl)thiazol-5-yl)oxy)pyridin-2-yl)amino)-N-methylnicotinamide] | < 100 | < 100
6 | CCc1nc(-c2cccc(C)n2)c(Oc2ccnc(Nc3cccc(C(=O)O)n3)c2)s1 [A-254, 6-((4-((2-Ethyl-4-(6-methylpyridin-2-yl)thiazol-5-yl)oxy)pyridin-2-yl)amino)picolinic acid] | > 100 | < 100
7 | CCc1nc(-c2cccc(C)n2)c(Oc2ccnc(Nc3cccc(C(N)=O)n3)c2)s1 [A-255, 6-((4-((2-Ethyl-4-(6-methylpyridin-2-yl)thiazol-5-yl)oxy)pyridin-2-yl)amino)picolinamide] | < 100 | < 100
8 | CCc1nc(-c2cccc(C)n2)c(Oc2ccnc(Nc3cccc(C(=O)NC)n3)c2)s1 [A-256, 6-((4-((2-Ethyl-4-(6-methylpyridin-2-yl)thiazol-5-yl)oxy)pyridin-2-yl)amino)-N-methylpicolinamide] | < 100 | < 100
9 | CCc1nc(-c2cccc(C)n2)c(Oc2ccnc(Nc3cccc(C(=O)O)c3)c2)s1 [A-257, 3-((4-((2-Ethyl-4-(6-methylpyridin-2-yl)thiazol-5-yl)oxy)pyridin-2-yl)amino)benzoic acid] | < 100 | < 100
10 | CCc1nc(-c2cccc(C)n2)c(Oc2ccnc(Nc3cccc(C(N)=O)c3)c2)s1 [A-258, 3-((4-((2-Ethyl-4-(6-methylpyridin-2-yl)thiazol-5-yl)oxy)pyridin-2-yl)amino)benzamide] | < 100 | < 100
11 | CCc1nc(-c2cccc(C)n2)c(Oc2ccnc(Nc3cccc(C(=O)NC)c3)c2)s1 [A-259, 3-((4-((2-Ethyl-4-(6-methylpyridin-2-yl)thiazol-5-yl)oxy)pyridin-2-yl)amino)-N-methylbenzamide] | < 100 | < 100
12 | CCc1nc(-c2cccc(C)n2)c(Oc2ccnc(Nc3cncc(C(=O)O)c3)c2)s1 [A-260, 5-((4-((2-Ethyl-4-(6-methylpyridin-2-yl)thiazol-5-yl)oxy)pyridin-2-yl)amino)nicotinic acid] | < 100 | > 100
13 | CCc1nc(-c2cccc(C)n2)c(Oc2ccnc(Nc3cncc(C(N)=O)c3)c2)s1 [A-261, 5-((4-((2-Ethyl-4-(6-methylpyridin-2-yl)thiazol-5-yl)oxy)pyridin-2-yl)amino)nicotinamide] | < 100 | < 100
14 | CCc1nc(-c2cccc(C)n2)c(Oc2ccnc(Nc3cncc(C(=O)NC)c3)c2)s1 [A-262, 5-((4-((2-Ethyl-4-(6-methylpyridin-2-yl)thiazol-5-yl)oxy)pyridin-2-yl)amino)-N-methylnicotinamide] | < 100 | < 100
15 | CCc1nc(-c2cccc(C)n2)c(Oc2ccnc(Nc3ccnc(C(=O)O)c3)c2)s1 [A-263, 4-((4-((2-Ethyl-4-(6-methylpyridin-2-yl)thiazol-5-yl)oxy)pyridin-2-yl)amino)picolinic acid] | < 100 | > 100
16 | CCc1nc(-c2cccc(C)n2)c(Oc2ccnc(Nc3ccnc(C(=O)NC)c3)c2)s1 [A-265, 4-((4-((2-Ethyl-4-(6-methylpyridin-2-yl)thiazol-5-yl)oxy)pyridin-2-yl)amino)-N-methylpicolinamide] | < 100 | < 100

Row | SMILES | IC50 (ALK5 kinase) [nM] | IC50 (TGF-β signaling) [nM]
17 | CCc1nc(-c2cccc(C)n2)c(Oc2ccnc(Nc3cc(C(=O)O)ccn3)c2)s1 [A-266, 2-((4-((2-Ethyl-4-(6-methylpyridin-2-yl)thiazol-5-yl)oxy)pyridin-2-yl)amino)isonicotinic acid] | < 100 | > 100
18 | CCc1nc(-c2cccc(C)n2)c(Oc2ccnc(Nc3cc(C(N)=O)ccn3)c2)s1 [A-267, 2-((4-((2-Ethyl-4-(6-methylpyridin-2-yl)thiazol-5-yl)oxy)pyridin-2-yl)amino)isonicotinamide] | < 100 | < 100
19 | CCc1nc(-c2cccc(C)n2)c(Oc2ccnc(Nc3cc(C(=O)NC)ccn3)c2)s1 [A-268, 2-((4-((2-Ethyl-4-(6-methylpyridin-2-yl)thiazol-5-yl)oxy)pyridin-2-yl)amino)-N-methylisonicotinamide] | < 100 | < 100
20 | Cc1cccc(-c2nc(C3CC3)sc2Oc2ccnc(Nc3cccc(C(N)=O)c3)c2)n1 [A-274, 3-((4-((2-Cyclopropyl-4-(6-methylpyridin-2-yl)thiazol-5-yl)oxy)pyridin-2-yl)amino)benzamide] | < 100 | < 100
21 | Cc1cccc(-c2nc(C3CC3)sc2Oc2ccnc(Nc3ccc(C(N)=O)cn3)c2)n1 [A-275] | < 100 | < 100
22 | Cc1cccc(-c2nc(N(C)C)sc2Oc2ccnc(Nc3cccc(S(N)(=O)=O)c3)c2)n1 [A-283, 3-((4-((2-(Dimethylamino)-4-(6-methylpyridin-2-yl)thiazol-5-yl)oxy)pyridin-2-yl)amino)benzenesulfonamide] | < 100 | < 100
23 | Cc1cccc(-c2nc(N(C)C)sc2Oc2ccnc(Nc3ccc(C(N)=O)cn3)c2)n1 [A-284, 6-((4-((2-(Dimethylamino)-4-(6-methylpyridin-2-yl)thiazol-5-yl)oxy)pyridin-2-yl)amino)nicotinamide] | < 100 | < 100
24 | Cc1cccc(-c2nc(N(C)C)sc2Oc2ccnc(Nc3ccc(C(=O)O)cn3)c2)n1 [A-285, 6-((4-((2-(Dimethylamino)-4-(6-methylpyridin-2-yl)thiazol-5-yl)oxy)pyridin-2-yl)amino)nicotinic acid] | < 100 | < 100
25 | CNC(=O)c1ccc(Nc2cc(Oc3sc(N(C)C)nc3-c3cccc(C)n3)ccn2)nc1 [A-286, 6-((4-((2-(Dimethylamino)-4-(6-methylpyridin-2-yl)thiazol-5-yl)oxy)pyridin-2-yl)amino)-N-methylnicotinamide] | < 100 | < 100
26 | Cc1cccc(-c2nc(C(C)C)sc2Oc2ccnc(Nc3cccc(S(N)(=O)=O)c3)c2)n1 [A-287, 3-((4-((2-Isopropyl-4-(6-methylpyridin-2-yl)thiazol-5-yl)oxy)pyridin-2-yl)amino)benzenesulfonamide] | < 100 | < 100
27 | Cc1cccc(-c2nc(C(C)C)sc2Oc2ccnc(Nc3ccc(C(N)=O)cn3)c2)n1 [A-288, 6-((4-((2-Isopropyl-4-(6-methylpyridin-2-yl)thiazol-5-yl)oxy)pyridin-2-yl)amino)nicotinamide] | < 100 | < 100
28 | Cc1cccc(-c2nc(C(F)(F)F)sc2Oc2ccnc(Nc3cccc(S(N)(=O)=O)c3)c2)n1 [A-289, 3-((4-((4-(6-Methylpyridin-2-yl)-2-(trifluoromethyl)thiazol-5-yl)oxy)pyridin-2-yl)amino)benzenesulfonamide] | < 100 | < 100
29 | Cc1cccc(-c2nc(C(F)(F)F)sc2Oc2ccnc(Nc3ccc(C(N)=O)cn3)c2)n1 [A-290] | < 100 | < 100
30 | Cc1cccc(-c2nc(C(F)(F)F)sc2Oc2ccnc(Nc3cccc(C(N)=O)c3)c2)n1 [A-291, 3-((4-((4-(6-Methylpyridin-2-yl)-2-(trifluoromethyl)thiazol-5-yl)oxy)pyridin-2-yl)amino)benzamide] | < 100 | < 100
31 | CNc1nc(-c2cccc(C)n2)c(Oc2ccnc(Nc3cccc(S(N)(=O)=O)c3)c2)s1 [A-292, 3-((4-((2-(Methylamino)-4-(6-methylpyridin-2-yl)thiazol-5-yl)oxy)pyridin-2-yl)amino)benzenesulfonamide] | < 100 | < 100
